The structures appear in SMILES notation. Where two headings read alike, the source gives them in different places. A value given as a limit tells only on which side of the number the result lay.

Experimental findings from patent US9708336B2, “Metallo-beta-lactamase inhibitors” (priority 2014, dated 2017) are described below.

Test [1] has as its target NDM-1 (Klebsiella pneumoniae, UniProt C7C422). Put plainly: biochemical. Conditions: read-out: NDM-1 IC50. Type of test: biochemical.
Test [2] addresses IMP-1 (Serratia marcescens, UniProt P52699). Kind of test: biochemical. Type of test: biochemical. As to conditions: read-out: IMP-1 IC50.
The target in test [3] is VIM-1 (Pseudomonas aeruginosa (strain ATCC 15692 / DSM 22644 / CIP 104116 / JCM 14847 / LMG 12228 / 1C / PRS 101 / PAO1), UniProt A0A0F7KYQ8). Kind of test: Enzyme activity: determination of IC50, fluorescence assay with CCF2-FA substrate (VIM-1). Type of test: biochemical.
In test [4] the test system is Escherichia coli expressing NDM-1 (CLB30016). Put plainly: Antibiotic potentiation activity: synergistic concentration (MITC95) with imipenem, OD600 growth. It is filed as cell-based. Conditions: for Escherichia coli MITC95: 95% growth inhibition; for Escherichia coli expressing NDM-1 (CLB 30016) MITC95: concentration giving 95% inhibition of bacterial growth. As for the experimental part:
(§1) Antibiotic Potentiation Activity: Determination of Synergistic Concentration
(§2) The bacterial strains tested included the clinical strains Escherichia coli expressing NDM-1 (CLB30005, CLB30016), Serratia marcescens expressing IMP-1 (CL5741), and Klebsiella pneumoniae expressing VIM-1 (IHMA599644) Inhibitor activity was measured in the presence and absence of imipenem in a 384-well microplate.
(§3) The clinical strains CLB30016, CL5741 and IHMA599644 were grown on trypticase soy agar containing 5% sheep's blood. The clinical strain CLB30005 was grown on Mueller Hinton broth agar containing 8 ug/ml imipenem. The bacteria on agar plates were incubated at 35° C. with humidity overnight. The following day, individual colonies from each clinical strain were picked and resuspended in 5 ml saline to attain an OD600 of 0.14, 0.11, 0.15 and 0.13, for CLB30005, CLB30016, CL5741 and IHMA599644, respectively. These were further diluted 1:100 into 1.1×CAMHB and used to inoculate the test wells as described below.
(§4) Imipenem in 10 mM 3-(N-morpholino)propanesulfonic acid (MOPS, pH 7) was stored in single use aliquots at −80° C. […] On the day of the assay, 4 μl of antibiotic was added to 45 ul of bacteria followed by 1 μl of test compound and mixed by pipetting and with an orbital shaker. The concentration of antibiotic used in the assay was 4 μg/ml, or optionally 1 μg/ml. Microplates were covered and incubated at 35° C. for 22 hours to 24 hours. At the end of the incubation, absorbance was determined using a spectrophotometer.

The test system of test [5] is Klebsiella pneumoniae expressing VIM-1 (IHMA599644). Described as above. Type of test: cell-based. Conditions: for Klebsiella pneumoniae MITC95: 95% growth inhibition; for Klebsiella pneumoniae expressing VIM-1 (IHMA 599644) MITC95: concentration giving 95% inhibition of bacterial growth. As for the experimental part: as §1, §2, §3, §4
Test [6] relates to Serratia marcescens expressing IMP-1 (CL5741). The description is as above. Conditions: for Serratia marcescens MITC95: 95% growth inhibition; for Serratia marcescens expressing IMP-1 (CL5741) MITC95: concentration giving 95% inhibition of bacterial growth. It is filed as cell-based. As for the experimental part:
as §1, §2, §3, §4

The mark [7] stands for this setting: VIM-1 enzyme, CCF2-FA fluorescence assay, read-out: VIM-1 IC50.
Setting [8] is: Escherichia coli expressing NDM-1 (CLB30016).
Where [9] appears, read: Klebsiella pneumoniae expressing VIM-1 (IHMA599644).
Where [10] appears, read: Serratia marcescens expressing IMP-1 (CL5741).
[11] abbreviates: fluorescence assay with CCF2-FA substrate.
The mark [12] stands for this setting: VIM-1 IC50, fluorescence assay with CCF2-FA substrate.
The mark [13] stands for this setting: fluorescence assay with CCF2-FA substrate, read-out: VIM-1 IC50.
[14] abbreviates: VIM-1 enzyme, CCF2-FA substrate, read-out: VIM-1 IC50.
Setting [15] is: Klebsiella pneumoniae IHMA599644 (VIM-1).
[16] abbreviates: Serratia marcescens CL5741 (IMP-1).

Chain of IMP-1 (P52699 whole entry, looked up): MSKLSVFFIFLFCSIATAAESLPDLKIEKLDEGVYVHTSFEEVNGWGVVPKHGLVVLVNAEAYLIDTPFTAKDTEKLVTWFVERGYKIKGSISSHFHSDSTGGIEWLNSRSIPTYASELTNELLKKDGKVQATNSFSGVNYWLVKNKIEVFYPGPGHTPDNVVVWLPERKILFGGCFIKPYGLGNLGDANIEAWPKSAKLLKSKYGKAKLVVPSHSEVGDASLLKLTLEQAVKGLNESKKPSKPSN
Chain of NDM-1 (C7C422 whole entry, looked up, species assumed): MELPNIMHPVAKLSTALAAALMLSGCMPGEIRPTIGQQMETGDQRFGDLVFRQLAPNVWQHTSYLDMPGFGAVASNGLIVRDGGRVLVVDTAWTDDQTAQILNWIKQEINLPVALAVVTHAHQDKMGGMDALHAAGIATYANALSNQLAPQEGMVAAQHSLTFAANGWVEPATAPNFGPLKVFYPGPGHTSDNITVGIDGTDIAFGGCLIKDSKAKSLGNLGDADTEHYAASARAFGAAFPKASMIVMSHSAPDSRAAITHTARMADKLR

For orientation: IC50 means the concentration that gives 50% inhibition. In the case of `NS(=O)(=O)c1c(Br)ccc(-c2ccnc3ccccc23)c1-c1nn[nH]n1` [Example 266, 6-bromo-3-(quinolin-4-yl)-2-(2H-tetrazol-5-yl)benzenesulfonamide], the IC50 in test [1] (NDM-1 enzyme, CCF2-FA fluorescence assay) was determined as 2.08 nM; in test [2] (IMP-1 enzyme, CCF2-FA fluorescence assay), 12.6 nM; in test [3] (setting [7]) it was 0.689 nM. Also, the “Escherichia coli MITC95” value in test [4] (setting [8]) was found to be 3.125 µM. Besides, the “Klebsiella pneumoniae MITC95” value in test [5] (setting [9]) amounted to 9.375 µM. Further, the “Serratia marcescens MITC95” value in test [6] (setting [10]) is 0.7813 µM.

`NS(=O)(=O)c1cccc(-c2cccc(CO)c2)c1-c1nnn[nH]1` [Example 119, 3′-(hydroxymethyl)-2-(1H-tetrazol-5-yl)-[1,1′-biphenyl]-3-sulfonamide]: the IC50 came out at 16.2 nM in test [1] (setting [11]), 548 nM in test [2] (setting [11]) and 261 nM in test [3] (setting [12]). In addition, the “Escherichia coli expressing NDM-1 (CLB 30016) MITC95” value in test [4] is 1.563 µM. For the same compound, in test [5], the “Klebsiella pneumoniae expressing VIM-1 (IHMA 599644) MITC95” value came out at 50 µM. Also, the “Serratia marcescens expressing IMP-1 (CL5741) MITC95” value in test [6] was found to be 18.75 µM.

Take `NS(=O)(=O)c1cccc(-c2cnn(CCN3CCOCC3)c2)c1-c1nnn[nH]1` [Example 126, 3-(1-(2-morpholinoethyl)-1H-pyrazol-4-yl)-2-(1H-tetrazol-5-yl)benzenesulfonamide]: the results for the IC50 in test [1] (setting [11]), in test [2] (setting [11]) and in test [3] (setting [13]) were 166 nM, 864 nM and 14400 nM, respectively. For the same compound, in test [4], the “Escherichia coli expressing NDM-1 (CLB 30016) MITC95” value is 6.25 µM. Besides, the “Klebsiella pneumoniae expressing VIM-1 (IHMA 599644) MITC95” value in test [5] was above 200 µM. Further, in test [6], the “Serratia marcescens expressing IMP-1 (CL5741) MITC95” value was 25 µM.

With `NS(=O)(=O)c1nccc(N2CCC(c3cccnc3)CC2)c1-c1nnn[nH]1` [Example 218, 4-(4-pyridin-3-ylpiperidin-1-yl)-3-(1H-tetrazol-5-yl)pyridine-2-sulfonamide], the IC50 in test [1] (setting [11]) is 102 nM; in test [2] (setting [11]), 484 nM; in test [3] (setting [13]) it was 106 nM. The “Escherichia coli expressing NDM-1 (CLB 30016) MITC95” value in test [4] was 12.5 µM. Further, the “Klebsiella pneumoniae expressing VIM-1 (IHMA 599644) MITC95” value in test [5] came to 100 µM. In test [6], the “Serratia marcescens expressing IMP-1 (CL5741) MITC95” value was determined as 25 µM.

Turning to `NS(=O)(=O)c1c(CCC2CCNCC2)ccc(-c2ccc(C3CNC3)cc2)c1-c1nnn[nH]1` [Example 598, 3-[4-(azetidin-3-yl)phenyl]-6-[2-(4-piperidyl)ethyl]-2-(1H-tetrazol-5-yl)benzenesulfonamide], in test [3] (setting [14]), the IC50 was 4.41 nM. Besides, in test [4] ((CLB30016, NDM-1)), the “Escherichia coli MITC95” value was 1.563 µM. Also, in test [5] (setting [15]), the “Klebsiella pneumoniae MITC95” value is 1.563 µM. Also, the “Serratia marcescens MITC95” value in test [6] (setting [16]) worked out at 3.125 µM.

Turning to `Nc1nc2c(-c3ccc(CCC4CCNCC4)c(S(N)(=O)=O)c3-c3nn[nH]n3)cccc2s1` [Example 540, 3-(2-Aminobenzo[d]thiazol-4-yl)-6-(2-(piperidin-4-yl)ethyl)-2-(2H-tetrazol-5-yl)benzenesulfonamide], in test [3] (setting [14]), the IC50 was 6.7 nM. Further, in test [4] ((CLB30016, NDM-1)), the “Escherichia coli MITC95” value amounted to 1.563 µM. In addition, in test [5] (setting [15]), the “Klebsiella pneumoniae MITC95” value was determined as 12.5 µM. Further, the “Serratia marcescens MITC95” value in test [6] (setting [16]) came to 6.25 µM.

As to `NS(=O)(=O)c1c(CCC2CCNCC2)ccc(-c2ccnc3ccccc23)c1-c1nn[nH]n1` [Example 452, 6-(2-(piperidin-4-yl)ethyl)-3-(quinolin-4-yl)-2-(2H-tetrazol-5-yl)benzenesulfonamide], in test [3] (setting [7]), the IC50 was found to be 1.98 nM. Also, in test [4] (setting [8]), the “Escherichia coli MITC95” value was found to be 1.563 µM. The “Klebsiella pneumoniae MITC95” value in test [5] (setting [9]) was 4.688 µM. The “Serratia marcescens MITC95” value in test [6] (setting [10]) turned out to be 9.375 µM.

Regarding `NCc1ccc(-c2ccc(Br)c(S(N)(=O)=O)c2-c2nn[nH]n2)cc1` [Example 271, 4′-(aminomethyl)-4-bromo-2-(2H-tetrazol-5-yl)-[1,1′-biphenyl]-3-sulfonamide], the IC50 in test [3] (setting [7]) came to 11.7 nM. In addition, in test [4] (setting [8]), the “Escherichia coli MITC95” value was determined as 0.3906 µM. The “Klebsiella pneumoniae MITC95” value in test [5] (setting [9]) came out at 2.344 µM. Also, in test [6] (setting [10]), the “Serratia marcescens MITC95” value came out at 0.5859 µM.

In test [3] (setting [12]), `CS(=O)(=O)NC1CCC(c2cccc(S(N)(=O)=O)c2-c2nn[nH]n2)CC1` (stereo not drawn) [Example 169, 3-(4-(methylsulfonamido)cyclohexyl)-2-(2H-tetrazol-5-yl)benzenesulfonamide] came in with an IC50 of 57.6 nM. The “Escherichia coli expressing NDM-1 (CLB 30016) MITC95” value in test [4] turned out to be 2.344 µM. The “Klebsiella pneumoniae expressing VIM-1 (IHMA 599644) MITC95” value in test [5] worked out at 50 µM. Moreover, in test [6], the “Serratia marcescens expressing IMP-1 (CL5741) MITC95” value was 3.125 µM.

Consider `Cn1cncc1CN1CCC(c2ccc(-c3cccc(S(N)(=O)=O)c3-c3nnn[nH]3)cc2)CC1` [Example 620, 3-[4-[1-[(3-methylimidazol-4-yl)methyl]-4-piperidyl]phenyl]-2-(1H-tetrazol-5-yl)benzenesulfonamide], for which, in test [3] (setting [14]), the IC50 was found to be 1030 nM. The “Escherichia coli MITC95” value in test [4] ((CLB30016, NDM-1)) was found to be 7.813 µM. In addition, the “Klebsiella pneumoniae MITC95” value in test [5] (setting [15]) was above 200 µM. Also, the “Serratia marcescens MITC95” value in test [6] (setting [16]) amounted to 2.344 µM.

`C[N+]1(C)CCc2c(cccc2-c2ccc(C(F)(F)F)c(S(N)(=O)=O)c2-c2nn[nH]n2)C1` [Example 520, 2,2-Dimethyl-5-(3-sulfamoyl-2-(2H-tetrazol-5-yl)-4-(trifluoromethyl)phenyl)-1,2,3,4-tetrahydroisoquinolin-2-ium]: the IC50 in test [3] (setting [14]) worked out at 1.96 nM. Moreover, the “Escherichia coli MITC95” value in test [4] ((CLB30016, NDM-1)) stood at 3.125 µM. In test [5] (setting [15]), the “Klebsiella pneumoniae MITC95” value came out at 3.125 µM. Moreover, the “Serratia marcescens MITC95” value in test [6] (setting [16]) worked out at 3.125 µM.

In the case of `Cc1nc(N)ccc1-c1ccc(C(F)(F)F)c(S(N)(=O)=O)c1-c1nn[nH]n1` [Example 555, 3-(6-amino-2-methyl-3-pyridyl)-2-(2H-tetrazol-5-yl)-6-(trifluoromethyl)benzenesulfonamide], in test [3] (setting [14]), the IC50 stood at 0.177 nM. Besides, in test [4] ((CLB30016, NDM-1)), the “Escherichia coli MITC95” value is 0.5859 µM. Besides, the “Klebsiella pneumoniae MITC95” value in test [5] (setting [15]) was 3.125 µM. The “Serratia marcescens MITC95” value in test [6] (setting [16]) was determined as 6.25 µM.

Turning to `CC(C)(C)Cc1ccc(-c2cccc3sc(N)nc23)c(-c2nn[nH]n2)c1S(N)(=O)=O` [Example 537, 3-(2-Aminobenzo[d]thiazol-4-yl)-6-neopentyl-2-(2H-tetrazol-5-yl)benzenesulfonamide], the half-maximal inhibitory concentration (IC50) in test [3] (setting [14]) is 66.7 nM. Besides, in test [4] ((CLB30016, NDM-1)), the “Escherichia coli MITC95” value was determined as 50 µM. Further, the “Klebsiella pneumoniae MITC95” value in test [5] (setting [15]) is above 200 µM. Moreover, the “Serratia marcescens MITC95” value in test [6] (setting [16]) was found to be 50 µM.

Turning to `C[N+]1(C)CCC(Cc2ccc(-c3ccc(C4CNC4)cc3)c(-c3nn[nH]n3)c2S(N)(=O)=O)CC1` [Example 605, 3-[4-(azetidin-3-yl)phenyl]-6-[(1,1-dimethylpiperidin-1-ium-4-yl)methyl]-2-(2H-tetrazol-5-yl)benzenesulfonamide], the IC50 worked out at 160 nM in test [2] (IMP-1 enzyme, CCF2-FA substrate) and 3.89 nM in test [3] (setting [14]). In addition, the “Escherichia coli MITC95” value in test [4] ((CLB30016, NDM-1)) is 6.25 µM. The “Klebsiella pneumoniae MITC95” value in test [5] (setting [15]) is 3.125 µM. In test [6] (setting [16]), the “Serratia marcescens MITC95” value was found to be 6.25 µM.

For the compound `Cc1cc(N)ncc1-c1ccc(C(F)(F)F)c(S(N)(=O)=O)c1-c1nn[nH]n1` [Example 557, 3-(6-amino-4-methyl-3-pyridyl)-2-(2H-tetrazol-5-yl)-6-(trifluoromethyl)benzenesulfonamide], the IC50 in test [3] (setting [14]) worked out at 0.656 nM. Moreover, in test [4] ((CLB30016, NDM-1)), the “Escherichia coli MITC95” value stood at 0.3906 µM. In test [5] (setting [15]), the “Klebsiella pneumoniae MITC95” value is 6.25 µM. Besides, the “Serratia marcescens MITC95” value in test [6] (setting [16]) came to 6.25 µM.
